The values that follow come from ChEMBL document CHEMBL1201862, “PubChem BioAssay data set” (2004).

Usually GI50 stands for the concentration giving 50% growth inhibition.

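The compound was tested at five concentrations on cells cultured in 96-well plates, with a 48-hour exposure period. GI50 marks 50% less growth.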 Calls of active or inactive are those of the source. No stated cut-off is given here; in the data, active = GI50 up to about 1.1 µM and inactive = higher.

Among the test systems are SNB-19; SF-539; NCI-H460; MOLT-4; IGROV-1; U-251; A498; NCI-H226; HCT-15; T47D; OVCAR-8; HOP-62; Malme-3M; PC-3; MDA-N; A549; TK-10; SN12C; UACC-62; HT-29.
What all share (assay): DTP human tumour cell line panel, 48 h

Regarding `O=C(CC(O)(C(F)(F)F)C(F)(F)F)c1cc(CC(=O)C(O)(C(F)(F)F)C(F)(F)F)cc(CC(=O)C(O)(C(F)(F)F)C(F)(F)F)c1`, the GI50 with SNB-19 is 2.67 µM (inactive); with SF-539, 2.05 µM (inactive); with NCI-H460 it was 0.454 µM (active); with MOLT-4 it was 4.47 µM (inactive); in the assay with IGROV-1, 1.65 µM (inactive); in the assay on U-251 it was 1.54 µM (inactive). For the same compound, the GI50 with A498 is 1.88 µM (inactive); in the assay with NCI-H226, 3.01 µM (inactive); in the assay with HCT-15, 0.971 µM; in the assay on T47D it was 0.419 µM (active); with OVCAR-8, 1.95 µM (inactive); in the assay with HOP-62, 1.46 µM (inactive). Also, the GI50 in the assay on Malme-3M was 2.01 µM (inactive); in the assay with PC-3, 0.78 µM (active); in the assay with MDA-N, 2.64 µM (inactive); in the assay on A549, 1.84 µM (inactive); in the assay on TK-10, 2.4 µM (inactive); in the assay on SN12C, 1.41 µM (inactive). Further, the GI50 in the assay on UACC-62 was 1.11 µM (active); in the assay with HT-29, 1.4 µM (inactive).

With `COc1ccccc1C1C2=C(COC2=O)OC(C)(C)Oc2cc3c(cc21)OCO3` (stereo not given), the GI50 in the assay on SNB-19 was 3.8 µM (inactive); in the assay with SF-539, 2.74 µM (inactive); in the assay with NCI-H460, 3.6 µM (inactive); in the assay with MOLT-4, 3.82 µM (inactive); in the assay on IGROV-1, 5.35 µM (inactive); with U-251 it was 3.85 µM (inactive). Further, the GI50 in the assay with A498 was 3.06 µM (inactive); in the assay with NCI-H226, 10.3 µM (inactive); in the assay on HCT-15, 3.23 µM; in the assay with T47D, 5.93 µM (inactive); in the assay on OVCAR-8 it was 5.12 µM (inactive); in the assay with HOP-62, 4.02 µM (inactive). Besides, the GI50 in the assay on Malme-3M is 3.89 µM (inactive); with PC-3, 2.19 µM (inactive); with MDA-N, 0.65 µM (active); in the assay on A549, 5.13 µM (inactive); in the assay on TK-10, 1.69 µM (inactive); with SN12C it was 5.48 µM (inactive). Further, the GI50 in the assay on UACC-62 is 3.37 µM (inactive); in the assay on HT-29, 3.47 µM (inactive).

`CCN(CC)CCCNC(=O)c1cc(-c2nccn2C)nc2ccccc12`: the GI50 in the assay on SNB-19 was > 100 µM (inactive); in the assay with SF-539, > 100 µM (inactive); in the assay with NCI-H460 it was 59.7 µM (inactive); with MOLT-4 it was > 100 µM (inactive); with IGROV-1 it was > 100 µM (inactive); in the assay with U-251 it was > 100 µM (inactive). For the same compound, the GI50 in the assay on A498 was > 100 µM (inactive); in the assay on NCI-H226, > 100 µM (inactive); in the assay with HCT-15, more than 100 µM; in the assay with T47D it was > 100 µM (inactive); in the assay on OVCAR-8, > 100 µM (inactive); in the assay on HOP-62 it was > 100 µM (inactive). In addition, the GI50 in the assay with Malme-3M, in the assay on PC-3, in the assay with MDA-N, with A549, in the assay on TK-10 and in the assay with SN12C was > 100 µM (inactive) each time. In addition, the GI50 with UACC-62 and with HT-29 was > 100 µM (inactive) each time.

With `OC1(c2cccs2)c2cccc(Cl)c2C(O)(c2cccs2)c2c(Cl)cccc21` (stereo not given), the GI50 in the assay on SNB-19 was 33.2 µM (inactive); with SF-539, 37 µM (inactive); in the assay with NCI-H460, > 100 µM (inactive); with MOLT-4, > 100 µM (inactive); in the assay on IGROV-1, 88.5 µM (inactive); in the assay with U-251, 26.6 µM (inactive). In addition, the GI50 in the assay with A498 was > 100 µM (inactive); in the assay on NCI-H226, > 100 µM (inactive); in the assay on HCT-15, more than 100 µM; in the assay on T47D it was > 100 µM (inactive); with OVCAR-8, 58.9 µM (inactive); in the assay with HOP-62, 57.9 µM (inactive). The GI50 is 80.2 µM (inactive) with Malme-3M; 99.3 µM (inactive) in the assay with PC-3; > 100 µM (inactive) in the assay on MDA-N; > 100 µM (inactive) in the assay with A549; > 100 µM (inactive) with TK-10; 93.8 µM (inactive) with SN12C. In addition, the GI50 in the assay on UACC-62 is 34.3 µM (inactive); in the assay on HT-29 it was > 100 µM (inactive).

Take `N#Cc1c(N)nc2c(c1-c1ccc(Br)cc1)CSc1ccccc1-2`: the GI50 in the assay with SNB-19 is 39.7 µM (inactive); with SF-539, 35 µM (inactive); in the assay on NCI-H460 it was 25.8 µM (inactive); with MOLT-4 it was 38.7 µM (inactive); in the assay with IGROV-1 it was 21.9 µM (inactive); in the assay with U-251 it was 34.4 µM (inactive). The GI50 in the assay on A498 was > 100 µM (inactive); in the assay on NCI-H226, 16.1 µM (inactive); in the assay on HCT-15, 25.6 µM; in the assay with T47D it was 17.4 µM (inactive); in the assay with OVCAR-8, 55 µM (inactive); in the assay on HOP-62, 50.1 µM (inactive). The GI50 with Malme-3M was > 100 µM (inactive); in the assay on PC-3, 16.7 µM (inactive); in the assay on MDA-N it was 49.4 µM (inactive); in the assay with A549, 37.2 µM (inactive); with TK-10, 73.1 µM (inactive); in the assay on SN12C, 30 µM (inactive). Further, the GI50 was 21.4 µM (inactive) with UACC-62 and 34.6 µM (inactive) in the assay on HT-29.

As to `COc1ccc2c(c1)-c1nc(=O)n(CCCN(C)C)c3ccc([N+](=O)[O-])c(c13)N2`, the GI50 in the assay on SNB-19 was 2.5 µM (inactive); in the assay with SF-539 it was 0.421 µM (active); with NCI-H460, 0.435 µM (active); with MOLT-4, 0.215 µM (active); in the assay on IGROV-1, 0.413 µM (active); in the assay on U-251, 1.43 µM (inactive). In addition, the GI50 with A498 is 3.39 µM (inactive); in the assay on NCI-H226 it was 3.81 µM (inactive); in the assay on HCT-15, 0.897 µM; with T47D, 15.5 µM (inactive); in the assay on OVCAR-8, 0.724 µM (active); with HOP-62 it was 0.675 µM (active). Further, the GI50 in the assay on Malme-3M was 0.752 µM (active); with PC-3 it was 0.792 µM (active); with MDA-N, 3.22 µM (inactive); in the assay on A549, 0.469 µM (active); in the assay on TK-10, 1.09 µM (active); with SN12C it was 0.752 µM (active). Moreover, the figures for the GI50 with UACC-62 and in the assay with HT-29 were 8.87 µM (inactive) and 0.473 µM (active), respectively.

On to `COC(=O)C1=C(C=O)C2C=CC1C2` (stereo not given), for which the GI50 was > 100 µM (inactive) with SNB-19; > 100 µM (inactive) in the assay with SF-539; > 100 µM (inactive) in the assay on NCI-H460; 35.6 µM (inactive) in the assay on MOLT-4; > 100 µM (inactive) in the assay with IGROV-1; > 88.5 µM (inactive) in the assay with U-251. Besides, the GI50 in the assay on A498 is > 100 µM (inactive); in the assay on NCI-H226 it was > 100 µM (inactive); in the assay with HCT-15, 42.1 µM; in the assay on T47D, > 100 µM (inactive); with OVCAR-8, 55 µM (inactive); in the assay on HOP-62, > 100 µM (inactive). The GI50 is 56.9 µM (inactive) in the assay with Malme-3M; > 100 µM (inactive) with PC-3; > 100 µM (inactive) in the assay on MDA-N; > 100 µM (inactive) with A549; 53.8 µM (inactive) in the assay on TK-10; > 71.8 µM (inactive) in the assay with SN12C. Further, the GI50 is > 93.1 µM (inactive) in the assay on UACC-62 and > 66.2 µM (inactive) in the assay with HT-29.

As to `COC(=O)c1cc(OC)c(OC)c(OC)c1-c1cc2c(cc1C=O)OCO2`, the GI50 in the assay on SNB-19, in the assay with SF-539, in the assay on NCI-H460, with MOLT-4, in the assay on IGROV-1 and in the assay with U-251 was > 10 µM (inactive) throughout. Besides, the GI50 with A498 was > 10 µM (inactive); in the assay on NCI-H226 it was > 10 µM (inactive); in the assay with HCT-15 it was more than 10 µM; in the assay with T47D, > 10 µM (inactive); in the assay on OVCAR-8 it was > 10 µM (inactive); in the assay on HOP-62, > 10 µM (inactive). In addition, the GI50 with Malme-3M, in the assay with PC-3, with MDA-N, with A549, with TK-10 and in the assay on SN12C was > 10 µM (inactive) each time. The GI50 with UACC-62 and in the assay with HT-29 was > 10 µM (inactive) in each case.

For `Cc1c(O)ccc2c(O)c(NC(=O)c3ccc4c(c3)CCC(C)(C)O4)c(=O)oc12` [CYCLONOVOBIOCIC ACID], the GI50 with SNB-19, in the assay on SF-539, in the assay with NCI-H460, with MOLT-4, in the assay with IGROV-1 and with U-251 was > 100 µM (inactive) each time. In addition, the GI50 with A498 is 45.8 µM (inactive); in the assay with NCI-H226, > 100 µM (inactive); with HCT-15, more than 100 µM; in the assay with T47D, > 100 µM (inactive); in the assay with OVCAR-8, > 100 µM (inactive); in the assay on HOP-62, > 100 µM (inactive). Besides, the GI50 with Malme-3M, in the assay with PC-3, in the assay with MDA-N, in the assay with A549, with TK-10 and with SN12C was > 100 µM (inactive) each time. In addition, the GI50 in the assay with UACC-62 was 90.6 µM (inactive); with HT-29, > 100 µM (inactive).
